Usually IC50 stands for the midpoint of a concentration-inhibition curve.

Sequence of human S1P1 receptors (P21453 whole entry): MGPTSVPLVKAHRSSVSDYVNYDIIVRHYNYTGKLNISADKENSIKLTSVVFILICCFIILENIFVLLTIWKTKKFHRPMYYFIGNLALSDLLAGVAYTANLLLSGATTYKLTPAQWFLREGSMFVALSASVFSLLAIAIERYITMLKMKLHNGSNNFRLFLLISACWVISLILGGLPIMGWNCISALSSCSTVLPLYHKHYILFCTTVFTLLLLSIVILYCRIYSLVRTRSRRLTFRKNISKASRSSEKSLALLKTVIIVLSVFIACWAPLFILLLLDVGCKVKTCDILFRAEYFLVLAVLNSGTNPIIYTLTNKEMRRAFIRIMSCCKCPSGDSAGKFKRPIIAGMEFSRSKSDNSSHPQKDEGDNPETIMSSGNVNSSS

The test concerns the target human S1P1 receptors (Homo sapiens (Human), UniProt P21453). The test can be described thus: Human S1P1 Receptor Calcium FLIPR Antagonist Assay (HeLa Gα16 S1P1). The test is classed as cell-based. As to conditions: relative antagonism vs probing agonist GNF-AC-1 at EC80, HeLa-S1P1/Gα16 cells. The text has this:
Human S1P1 Receptor Calcium FLIPR Antagonist Assay
The assay measures intracellular changes of Ca^2+ mediated by the synthetic probing agonist 3-{[2-(2-Trifluoromethyl-biphenyl-4-yl)-benzo[b]thiophen-5-ylmethyl]-amino}-propionic acid (GNF-AC-1) in the HeLa-S1P1/Gα16 cell clone 1: HeLa (human cervix carcinoma, ATCC CCL2) cells stably expressing N-terminally myc-tagged human S1P1 receptors (GenBank™ accession No. NM_001400; UNIPROT P21453) and promiscuous Gα16 protein (GenBank™ accession number M63904, Swissprot P30679) are cultured at 37° C., 5% CO2, and 95% relative humidity. The cells are plated in 384 well black plates (10′000 cells per well). After 24 hours the cells are loaded with Fluo-4-AM (1.6 μM in HBSS and 2.5 mM probenicid) for 1 hour at 37° C. After washing, the cells are transferred to the FLIPR. The test compounds are added at different concentrations (≦100 μM) in HBSS in the presence of 0.1% BSA and changes in fluorescence are recorded (indication of agonism). The probing agonist is added 20-30 minutes afterwards to the wells at a concentration giving 80% of the maximal activity (EC80). After each addition, time points are collected as follows: 20 time points (2 seconds) before the addition of the agonist (Fmin) and 60 time points (1 or 2 seconds) after the addition of the probing agonist. This allows the determination of the maximal fluorescence (Fmax). The ratio (Fmax−Fmin)/Fmin is plotted against the log of the concentration of the test compounds and the IC50 (relative antagonism) is calculated using the XLfit-4 software. […] A concentration-response curve of the probing agonist is determined on each plate in parallel.
Turning to `Cc1cc([C@H](Nc2cccc(CN3CC(C(=O)O)C3)c2C)C(F)(F)F)ccc1Cl` [Example 39, 1-{3-[(S)-1-(4-Chloro-3-methyl-phenyl)-2,2,2-trifluoro-ethylamino]-2-methyl-benzyl}-azetidine-3-carboxylic acid], the IC50 stood at 0.8 nM. As to `Cc1cc([C@H](Nc2ccc(C)c(CNCCC(=O)O)c2C)C(F)(F)F)ccc1Cl` [Example 40, 3-{3-[(S)-1-(4-Chloro-3-methyl-phenyl)-2,2,2-trifluoro-ethylamino]-2,6-dimethyl-benzylamino}-propionic acid], the IC50 amounted to 0.4 nM. For `Cc1ccc(N[C@H](C)c2cc(C)c(Cl)c(C)c2)cc1CN1CC[C@@H](C(=O)O)C1` [Example 44, (R)-1-{5-[(R)-1-(4-Chloro-3,5-dimethyl-phenyl)-ethylamino]-2-methyl-benzyl}-pyrrolidine-3-carboxylic acid] the value was 6.7 nM; for `Cc1cc([C@@H](C)Nc2ccc(Cl)c(CN3CC[C@@H](C(=O)O)C3)c2)cc(C)c1Cl` [Example 46, (R)-1-{2-Chloro-5-[(R)-1-(4-chloro-3,5-dimethyl-phenyl)-ethylamino]-benzyl}-pyrrolidine-3-carboxylic acid], 1.3 nM; for `Cc1ccc(N[C@H](C)c2cc(C)c(Cl)c(C)c2)cc1CNCCC(=O)O` [Example 47, 3-{5-[(R)-1-(4-Chloro-3,5-dimethyl-phenyl)-ethylamino]-2-methyl-benzylamino}-propionic acid], 1.6 nM.

On to `CC[C@@H](Nc1ccc(C)c(CNC[C@@H](C)C(=O)O)c1)c1cc(C)c(Cl)c(C)c1` [Example 49, (R)-3-(5-[(R)-1-(4-Chloro-3,5-dimethyl-phenyl)-propylamino)-2-methyl-benzylamino]-2-methyl-propionic acid], for which the IC50 was determined as 2.4 nM.

For the molecule `Cc1cc([C@H](Nc2ccc(Cl)c(CNCCC(=O)O)c2)C(F)(F)F)ccc1Cl` [Example 52, 3-{2-Chloro-5-[(S)-1-(4-chloro-3-methyl-phenyl)-2,2,2-trifluoro-ethylamino]-benzylamino}-propionic acid], the IC50 is 0.9 nM.

Regarding `CC[C@@H](Nc1cc(CN2CC(C(=O)O)C2)c(F)cn1)c1ccc(Cl)c(C)c1` [Example 54, 1-{2-[(R)-1-(4-Chloro-3-methyl-phenyl)-propylamino]-5-fluoro-pyridin-4-ylmethyl}-azetidine-3-carboxylic acid], the IC50 is 0.9 nM. Then `CC[C@@H](Nc1cc(CN2CCC(C)(C(=O)O)C2)c(Cl)cn1)c1ccc(Cl)c(C)c1` (stereo partly drawn) [Example 57, 1-{5-Chloro-2-[(R)-1-(4-chloro-3-methyl-phenyl)-propylamino]-pyridin-4-ylmethyl}-3-methyl-pyrrolidine-3-carboxylic acid], with 2.4 nM; and `CC[C@@H](Nc1cc(CNCCC(=O)O)c(Cl)cn1)c1ccc(Cl)c(C)c1` [Example 58, 3-({5-Chloro-2-[(R)-1-(4-chloro-3-methyl-phenyl)-propylamino]-pyridin-4-ylmethyl}-amino)-propionic acid], with 0.1 nM.

Turning to `CC[C@@H](Nc1cc(CN2CC[C@@H](C(=O)O)C2)c(C)cn1)c1ccc(Cl)c(C)c1` [Example 60, (R)-1-{2-[(R)-1-(4-Chloro-3-methyl-phenyl)-propylamino]-5-methyl-pyridin-4-ylmethyl}-pyrrolidine-3-carboxylic acid], the IC50 is 2.1 nM. For `Cc1cc([C@H](Nc2ccc(Cl)c(CN3CC(C(=O)O)C3)c2)C(C)C)ccc1Cl` [Example 63, 1-{2-Chloro-5-[(R)-1-(4-chloro-3-methyl-phenyl)-2-methyl-propylamino]-benzyl}-azetidine-3-carboxylic acid] the value was 1.1 nM; for `Cc1cc([C@H](Nc2ccc(Cl)c(CN3CC(C(=O)O)C3)c2)C(C)C)cc(C)c1Cl` [Example 64, 1-{2-Chloro-5-[(R)-1-(4-chloro-3,5-dimethyl-phenyl)-2-methyl-propylamino]-benzyl}-azetidine-3-carboxylic acid], 1.7 nM. For `Cc1cc([C@H](Nc2cccc(CN3CC(C(=O)O)C3)c2)C(F)(F)F)ccc1Cl` [Example 67, 1-{3-[(S)-1-(4-Chloro-3-methyl-phenyl)-2,2,2-trifluoro-ethylamino]-benzyl}-azetidine-3-carboxylic acid] the value was 0.8 nM. As for `Cc1cc([C@H](Nc2ccc(Cl)c(CN3CC(C(=O)O)C3)c2)C(F)(F)F)ccc1Cl` [Example 68], the IC50 was 0.7 nM. For `Cc1cc([C@H](Nc2ccc(C(F)(F)F)c(CN3CC(C(=O)O)C3)c2)C(F)(F)F)ccc1Cl` [Example 69, 1-{5-[(S)-1-(4-Chloro-3-methyl-phenyl)-2,2,2-trifluoro-ethylamino]-2-trifluoromethyl-benzyl}-azetidine-3-carboxylic acid] the value was 0.8 nM; for `Cc1cc([C@H](Nc2ccc(Cl)c(CN3CCC(C(=O)O)C3)c2)C(F)(F)F)ccc1Cl` (stereo partly drawn) [Example 72, 1-{2-Chloro-5-[(S)-1-(4-chloro-3-methyl-phenyl)-2,2,2-trifluoro-ethylamino]-benzyl}-pyrrolidine-3-carboxylic acid], 1.1 nM. For `CC[C@@H](Nc1cccc(CN2CC(C(=O)O)C2)n1)c1ccc(Cl)c(C)c1` [Example 74, 1-{6-[(R)-1-(4-Chloro-3-methyl-phenyl)-propylamino]-pyridin-2-ylmethyl}-azetidine-3-carboxylic acid] the value was 14.1 nM. For `CC[C@@H](Nc1cc(CN2CC(C(=O)O)C2)ccn1)c1ccc(Cl)c(C)c1` [Example 75, 1-{2-[(R)-1-(4-Chloro-3-methyl-phenyl)-propylamino]-pyridin-4-ylmethyl}-azetidine-3-carboxylic acid] the value was 2.8 nM; for `Cc1cc([C@H](Nc2cccc(CN3CC(C(=O)O)C3)c2)C2CCC2)ccc1Cl` [Example 76, 1-(3-{[(R)-(4-Chloro-3-methyl-phenyl)-cyclobutyl-methyl]-amino}-benzyl)-azetidine-3-carboxylic acid], 5.7 nM. With `CC[C@@H](Nc1ccnc(CN2CC(C(=O)O)C2)c1)c1ccc(Cl)c(C)c1` [Example 78, 1-{4-[(R)-1-(4-Chloro-3-methyl-phenyl)-propylamino]-pyridin-2-ylmethyl}-azetidine-3-carboxylic acid], the 50% inhibitory concentration (IC50) is 0.8 nM. For `CC[C@@H](Nc1cc(CN2CC(C(=O)O)C2)c(Cl)cn1)c1ccc(Cl)c(C)c1` [Example 79, 1-{5-Chloro-2-[(R)-1-(4-chloro-3-methyl-phenyl)-propylamino]-pyridin-4-ylmethyl}-azetidine-3-carboxylic acid] the value was 0.6 nM; for `CC[C@@H](Nc1ccc(C)c(CNCC(C)(C)C(=O)O)c1)c1cc(C)c(Cl)c(C)c1` [Example 80, 3-{5-[(R)-1-(4-Chloro-3,5-dimethyl-phenyl)-propylamino]-2-methyl-benzylamino}-2,2-dimethyl-propionic acid], 24.5 nM.

`CC[C@@H](Nc1ccc(C)c(CNC[C@H](C)C(=O)O)c1)c1cc(C)c(Cl)c(C)c1` [Example 81, (S)-3-{5-[(R)-1-(4-Chloro-3,5-dimethyl-phenyl)-propylamino]-2-methyl-benzylamino}-2-methyl-propionic acid]: the IC50 was 3.9 nM. Then `CC[C@@H](Nc1ccc(C)c(CN(C)CCC(=O)O)c1)c1cc(C)c(Cl)c(C)c1` [Example 82, 3-({5-[(R)-1-(4-Chloro-3,5-dimethyl-phenyl)-propylamino]-2-methyl-benzyl}-methyl-amino)-propionic acid], with 3 nM.

As for `Cc1cc([C@H](Nc2ccc(C)c(CN3CCC(C)(C(=O)O)C3)c2)C(F)(F)F)ccc1Cl` (stereo partly drawn) [Example 83, 1-{5-[(S)-1-(4-Chloro-3-methyl-phenyl)-2,2,2-trifluoro-ethylamino]-2-methyl-benzyl}-3-methyl-pyrrolidine-3-carboxylic acid], the IC50 was 2.9 nM.

Values taken from US8791100B2 (Novartis AG, priority 2010, dated 2014).
